Values of other authors in paper PMC4315033, “The regulation of muscle mass by endogenous glucocorticoids” (Frontiers in Physiology, 2015).
Each block holds one molecule with its values, some of them ahead of it.

Key:
MAFbx and MuRF1 = system: MAFbx and MuRF1; parameters: method as in Frost et al., 2007; conditions: adult rats, ref Frost et al., 2007
muscle protein breakdown = system: muscle protein breakdown; parameters: method as in Zamir et al., 1992; conditions: ref Zamir et al., 1992
muscle wasting = system: muscle wasting; parameters: method as in Song et al., 2005; conditions: angiotensin II infused at concentrations mimicking endogenous production in CKD, co-administration; ref Song et al., 2005
MAFbx, MuRF1, and Foxo1 = system: MAFbx, MuRF1, and Foxo1; parameters: method as in Braun et al., 2011; conditions: inflammatory cytokines delivered directly into the brain; ref Braun et al., 2011
muscle explants = system: muscle explants; parameters: method as in Tiao et al., 1996; conditions: juvenile rats, explants harvested 16 h after CLP; ref Tiao et al., 1996
muscle atrophy = system: muscle atrophy; parameters: method as in Hu et al., 2009; conditions: ref Hu et al., 2009
miR27a and b = system: miR27a and b; parameters: method as in Allen and Loh, 2011; conditions: ref Allen and Loh, 2011
GR^dim mice = system: GR^dim mice; parameters: method as in Reichardt et al., 1998; Tuckermann et al., 1999; conditions: ref Reichardt et al., 1998, Tuckermann et al., 1999
TRAF6 = system: TRAF6; parameters: method as in Sun et al., 2014; conditions: pharmacologic doses; ref Sun et al., 2014
cultured myotubes [1] = system: cultured myotubes; parameters: method as in Lokireddy et al., 2012; conditions: ref Lokireddy et al., 2012
[2] = system: mineralocorticoid receptor; parameters: method as in Chapman et al., 2013; conditions: ref Chapman et al., 2013
cultured myotubes [3] = system: cultured myotubes; parameters: method as in Biedasek et al., 2011; conditions: ref Biedasek et al., 2011

SMILES: CC#C[C@]1(O)CC[C@H]2[C@@H]3CCC4=CC(=O)CCC4=C3[C@@H](c3ccc(N(C)C)cc3)C[C@@]21C [mifepristone]
half-life (in words) (in vivo): very short | half-life (rodents, ref Heikinheimo et al., 1994): 1 to 2 h | activity at other steroid receptors (other steroid receptors): has activity | induction of MAFbx and MuRF1 in septic rats (MAFbx and MuRF1; CLP, 24 h): failed to alter | induction of MAFbx and MuRF1 by dexamethasone (MAFbx and MuRF1; similar time point): effectively blocking | mortality (muscle protein breakdown; concurrent cytokine and mifepristone administration): ~50% | induction of muscle protein degradation brought about by tumor necrosis factor (TNF) (muscle protein breakdown; concurrent mifepristone): attenuates | proteolysis accompanied by interleukin-1 α administration (muscle protein breakdown; concurrent mifepristone): not blocked | angiotensin II induced muscle wasting (muscle wasting): reversed | induction of MAFbx, MuRF1, and Foxo1 in muscle (MAFbx, MuRF1, and Foxo1): blocked | tyrosine release from muscle explants (muscle explants): significantly reduced

muscle atrophy in diabetic adrenalectomized mice (muscle atrophy; same dose, streptozotocin-induced diabetes): restores normal muscle atrophy
SMILES: C[C@@H]1C[C@H]2[C@@H]3CCC4=CC(=O)C=C[C@]4(C)[C@@]3(F)[C@@H](O)C[C@]2(C)[C@@]1(O)C(=O)CO [dexamethasone]
muscle atrophy, given in isolation (muscle atrophy; dose estimated to mimic endogenous concentrations in diabetic animals): insufficient to evoke substantial atrophy | levels of miR27a and b in skeletal muscle (miR27a and b): decrease | PMA-induced skin inflammation (GR^dim mice): continued to suppress | expression of genes regulating carbohydrate balance (GR^dim mice): failed to alter | TRAF6 expression (TRAF6): increase | Mul1 expression (cultured myotubes [1]): induces | mitophagy (cultured myotubes [1]): induces

affinity for mineralocorticoid receptor relative to GR [2]: higher affinity
SMILES: C[C@]12CCC(=O)C=C1CC[C@@H]1[C@@H]2[C@@H](O)C[C@@]2(C)[C@H]1CC[C@]2(O)C(=O)CO [Cortisol]

binding to the GR (GR): does not bind
SMILES: C[C@]12CCC(=O)C=C1CC[C@@H]1[C@@H]2C(=O)C[C@@]2(C)[C@H]1CC[C@]2(O)C(=O)CO [cortisone]
proteolysis and atrophy in cultured myotubes (cultured myotubes [3]): capable of inducing
